Reference: patent publication US10889587B2, “Tebipenem pivoxil crystalline forms, compositions including the same, methods of manufacture, and methods of use” (SPERO THERAPEUTICS, INC., priority 2017, dated 2021)

How the values were obtained:
[1] = GVS (Gravimetric Vapor Sorption) and XRPD analysis post GVS; type: physicochemical
[2] = Storage stability: XRPD and HPLC analysis post storage at 40° C./75% RH or 25° C./97% RH; type: physicochemical; settings: three days
Excerpt: Samples were run under ambient conditions as flat plate specimens using powder as received. The sample was gently packed into a cavity cut into polished, zero-background (510) silicon wafer. The sample was rotated in its own plane during analysis.

SMILES | Hygroscopicity by GVS [1] | GVS uptake ([1]; from 0 to 90% RH) | Appearance post storage [2]
CS(=O)(=O)O.C[C@@H](O)[C@H]1C(=O)N2C(C(=O)OCOC(=O)C(C)(C)C)=C(SC3CN(C4=NCCS4)C3)[C@H](C)[C@H]12 [Example 8, Tebeipenem Pivoxil Methane Sulfonate Salt (MSA)] | hygroscopic | 10.0% | –
CC(O)C1C(=O)N2C(C(=O)OCOC(=O)C(C)(C)C)=C(SC3CN(C4=NCCS4)C3)C(C)C12.O=S(=O)(O)CCS(=O)(=O)O (stereo not drawn) [Example 13, Tebipenem Pivoxil Edisylate (EDSA) Salt] | – | – | deliquesced
